Where “and” joins values, the source holds several entries; their conditions need not be identical. Equal entries are not always repeated. Structures can show the parent of a compound that is named as a salt.
How the values were obtained:
whole complement = assay: Complement Level Reduction Test (serum of dosed guinea pigs, capillary tube assay); format: in vivo, guinea pig
activated human C1 = target: T1, activated human C1 (Homo sapiens, UniProt P09871); assay: Test, Code 026 (C1 inhibitor); format: biochemical; conditions: higher well number indicates higher activity, serial dilutions two-fold
T1 sequence (P09871 16-437 limits assumed): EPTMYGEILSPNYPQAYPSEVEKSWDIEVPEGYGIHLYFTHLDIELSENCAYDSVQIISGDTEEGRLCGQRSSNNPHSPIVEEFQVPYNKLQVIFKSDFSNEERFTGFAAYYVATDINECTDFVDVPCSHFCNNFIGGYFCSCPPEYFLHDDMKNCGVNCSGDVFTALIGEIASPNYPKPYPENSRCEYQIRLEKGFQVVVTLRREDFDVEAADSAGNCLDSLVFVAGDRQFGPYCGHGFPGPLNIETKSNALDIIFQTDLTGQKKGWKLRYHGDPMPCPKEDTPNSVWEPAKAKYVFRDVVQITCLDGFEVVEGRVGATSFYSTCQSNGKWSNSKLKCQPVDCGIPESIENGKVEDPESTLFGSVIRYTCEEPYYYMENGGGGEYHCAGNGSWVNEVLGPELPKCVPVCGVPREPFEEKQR
T1 sequence (P09871 438-688 limits assumed): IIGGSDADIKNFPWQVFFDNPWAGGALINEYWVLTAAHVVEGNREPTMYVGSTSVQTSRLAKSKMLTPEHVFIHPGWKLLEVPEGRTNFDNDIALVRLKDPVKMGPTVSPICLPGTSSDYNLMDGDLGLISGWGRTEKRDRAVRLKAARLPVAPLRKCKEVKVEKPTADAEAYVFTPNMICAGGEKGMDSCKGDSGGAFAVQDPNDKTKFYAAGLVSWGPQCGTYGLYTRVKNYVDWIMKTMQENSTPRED
Excerpt: (§1) This test measures the ability of activated human C1 to destroy fluid phase human C2 in the presence of C4 and appropriate dilutions of the test compound. An active inhibitor protects C2 from C1 and C4; (ii) Test, Code 035 (C3-C9 inhibitor) -- This test determines the ability of the late components of human complement (C3-C9) to lyse EAC 142 in the presence of appropriate dilutions of the test compound. An active inhibitor protects EAC 142 from lysis by human C3-C9; (iii) Test, Code 036 (C-Shunt inhibitor)-In this test human erythrocytes rendered fragile are lysed in autologous serum via the shunt pathway activated by cobra venom factor in the presence of appropriate dilutions of the test compound. Inhibition of the shunt pathway results in failure of lysis; (iv) Forssman Vasculitis Test -- Here, the well known complement dependent lesion, Forssman vasculitis, is produced in guinea pigs by intradermal injection of rabbit anti-Forssman antiserum. The lesion is measured in terms of diameter, edema and hemorrhage and the extent to which a combined index of these is inhibited by prior intraperitoneal injection of the test compound at 200 mg/kg is then reported, unless otherwise stated; (v) Forssman Shock Test -- Lethal shock is produced in guinea pigs by an i.v. injection of anti-Forssman antiserum and the harmonic mean death time of treated guinea pigs is compared with that of simultaneous controls; (vi) Complement Level Reduction Test -- In this test, the above dosed guinea pigs, or others, are bled for serum and the complement level is determined in undiluted serum by the capillary tube method of U.S. Pat. No. 3,876,376 and compared to undosed control guinea pigs; and (vii) Cap 50 Test -- Here, appropriate amounts of the test compound are added to a pool of guinea pig serum in vitro, after which the undiluted serum capillary tube assay referred to above is run. The concentration of compound inhibiting 50% is reported.

[1] = tested on: shunt pathway activated by cobra venom factor; format: cell-based, human; conditions: higher well number indicates higher activity; serial dilutions two-fold
Excerpt: as §1

[2] = tested on: late components of human complement (C3-C9); assay: Test, Code 035 (C3-C9 inhibitor), lysis of EAC 142; format: biochemical; conditions: higher well number indicates higher activity; serial dilutions two-fold
Excerpt: as §1

[3] = tested on: lethal shock by i.v. anti-Forssman antiserum; assay: Forssman Shock Test; format: in vivo; conditions: guinea pig, at 200 mg/kg; Control=3.15 min
Procedure: as §1, with “An active inhibitor protects EAC 142 from lysis by human C3-C9; (iii) Test, Code 036 (C-Shunt inhibitor)-In this test human erythrocytes rendered fragile are lysed in autologous serum via the shunt pathway activated by cobra venom factor in the presence of appropriate dilutions of the test compound. Inhibition of the shunt pathway results in failure of lysis; (iv) Forssman Vasculitis Test -- Here, the well known complement dependent lesion, Forssman vasculitis, is produced in guinea pigs by intradermal injection of rabbit anti-Forssman antiserum.” left out, “The concentration of compound inhibiting 50% is reported.” left out

[4] = reported in literature; cited from earlier work
complement system = conditions: reported in literature; cited from earlier work

Question: For α-cyclodextrin polysulfate sodium salt, which “In vivo Activity (Guinea Pig) % Inhibition” value (whole complement; 100 mg/kg i.v., time 2') is on record?
Answer: 75%

Question: What about the “In vivo Activity (Guinea Pig) % Inhibition” value (whole complement; 100 mg/kg i.v., time 30') of the same compound?
Answer: 56%

Question: And the “In vivo Activity (Guinea Pig) % Inhibition” value (whole complement; 100 mg/kg i.v., time 120')?
Answer: 39%

Question: And the “In vivo Activity (Guinea Pig) % Inhibition” value (whole complement; 200 mg/kg i.p., time 30')?
Answer: 71%

Question: What about the “In vivo Activity (Guinea Pig) % Inhibition” value (whole complement; 200 mg/kg i.p., time 60') of the same compound?
Answer: 28%

Question: What about the “In vivo Activity (Guinea Pig) % Inhibition” value (whole complement; 200 mg/kg i.p., time 120') of the same compound?
Answer: 72%

Question: What about the “026 (C1 inhibitor) activity, wells of a two-fold serial dilution assay” value (activated human C1) of the same compound?
Answer: 14 wells

Question: What about the “036 (C-Shunt inhibitor) activity, wells of a two-fold serial dilution assay” value [1] of the same compound?
Answer: 6 wells

Question: What about the “035 (C3-C9 inhibitor) activity, wells of a two-fold serial dilution assay” value [2] of the same compound?
Answer: Neg

Question: And the “Forsmann Shock, harmonic mean death time” value [3]?
Answer: 31.1 min

Question: With “β-Cyclodextrin polysulfate potassium salt” as the compound, how does the “026 (C1 inhibitor) activity, wells of a two-fold serial dilution assay” value (activated human C1) read?
Answer: 10 wells

Question: What about the “036 (C-Shunt inhibitor) activity, wells of a two-fold serial dilution assay” value [1] of the same compound?
Answer: 6 wells

Question: What about the “035 (C3-C9 inhibitor) activity, wells of a two-fold serial dilution assay” value [2] of the same compound?
Answer: Neg

Question: Which “In vivo Activity (Guinea Pig) % Inhibition” value (whole complement; 100 mg/kg i.v., time 2') does the source give for β-Cyclodextrin polysulfate sodium salt here?
Answer: 75%

Question: And the “In vivo Activity (Guinea Pig) % Inhibition” value (whole complement; 100 mg/kg i.v., time 30')?
Answer: 45%

Question: What about the “In vivo Activity (Guinea Pig) % Inhibition” value (whole complement; 100 mg/kg i.v., time 120') of the same compound?
Answer: 27%

Question: What about the “In vivo Activity (Guinea Pig) % Inhibition” value (whole complement; 200 mg/kg i.p., time 30') of the same compound?
Answer: 49%

Question: What about the “In vivo Activity (Guinea Pig) % Inhibition” value (whole complement; 200 mg/kg i.p., time 60') of the same compound?
Answer: 29%

Question: And the “In vivo Activity (Guinea Pig) % Inhibition” value (whole complement; 200 mg/kg i.p., time 120')?
Answer: 67%

Question: What about the “026 (C1 inhibitor) activity, wells of a two-fold serial dilution assay” value (activated human C1; sodium salt) of the same compound?
Answer: 12 wells and 11 wells and 10 wells

Question: And the “Forsmann Shock, harmonic mean death time” value [3]?
Answer: > 90 min

Question: For `NCCCCCC(=O)O` [epsilon-aminocaproic acid], which “treatment of hereditary angioneurotic edema” value [4] is on record?
Answer: used with success

Question: For `Nc1ccc2cc(S(=O)(=O)O)cc(O)c2c1N=Nc1ccc(NC(=O)Nc2ccc(N=Nc3c(N)ccc4cc(S(=O)(=O)O)cc(O)c34)c(S(=O)(=O)O)c2)cc1S(=O)(=O)O` [chlorazol fast pink, 3,3'-ureylenebis-[6-(2-amino-8-hydroxy-6-sulfo-1-naphthylazo)]benzenesulfonic acid tetrasodium salt], which anticomplementary effect (complement system) is on record?
Answer: anticomplementary effect

Question: With `NC[C@H]1CC[C@H](C(=O)O)CC1` [tranexamic acid] as the compound, how does the “treatment of hereditary angioneurotic edema” value [4] read?
Answer: used with success

Question: Which “026 (C1 inhibitor) activity, wells of a two-fold serial dilution assay” value (activated human C1) does the source give for “α-Cyclodextrin polysulfate triethylammonium salt” here?
Answer: 11 wells

Question: What about the “036 (C-Shunt inhibitor) activity, wells of a two-fold serial dilution assay” value [1] of the same compound?
Answer: 3 wells and 5 wells

Question: And the “035 (C3-C9 inhibitor) activity, wells of a two-fold serial dilution assay” value [2]?
Answer: Neg

Question: For “β-Cyclodextrin polysulfate triethylammonium salt”, which “026 (C1 inhibitor) activity, wells of a two-fold serial dilution assay” value (activated human C1) is on record?
Answer: 10 wells

Question: And the “036 (C-Shunt inhibitor) activity, wells of a two-fold serial dilution assay” value [1]?
Answer: 4 wells and 6 wells

Question: What about the “035 (C3-C9 inhibitor) activity, wells of a two-fold serial dilution assay” value [2] of the same compound?
Answer: Neg

Question: For heparin, which anticomplementary effect (complement system) is on record?
Answer: anticomplementary effect

Reference: patent US4020160A, “Cyclodextrin sulfate salts as complement inhibitors” (American Cyanamid Company, priority 1975, dated 1977)
